Source: patent US20220053762A1, “HERBICIDAL COMPOSITIONS” (Bayer Aktiengesellschaft, priority 2018, published 2022)

Test system: harmful plant species
Assay: Specific trial examples: binary compositions applied by the post-emergence method, synergistic effect according to Colby (Tables 3.1-3.2)
Assay type: in vivo
Method: When the observed efficacies already exceed the formal sum total of the values of the tests with individual applications, they also exceed the expected value according to Colby, which is calculated using the formula below and is likewise regarded as an indication of synergism (cf. S. R. Colby; in Weeds 15 (1967) p. 20 to 22):
Seeds or rhizome pieces of mono- and dicotyledonous weeds are placed in sandy loam in pots, covered with soil and grown in a greenhouse under good growth conditions (temperature, air humidity, water supply). Three weeks after sowing, the test plants are treated at the three-leaf stage with the compositions according to the invention. The compositions according to the invention formulated as spray powders or as emulsion concentrates are sprayed onto the green plant parts in various dosages with an application rate of 300 to 800 l/ha of water (equivalent).
The sum total of the effects of the individual applications is reported under E^A; Expected values according to Colby are each reported under E^C.
The rating period is reported in days after application (DAT).

In the case of `O=C(Nc1ccc(F)cc1F)c1cccnc1Oc1cccc(C(F)(F)F)c1` [(B2.18) Diflufenican], the “Herbicidal action against Digitaria sanguinalis” value (28 DAT, g a.i./ha: r8 270, r9 90, r10 30, r11 15, r12 5) was 20%, the “Herbicidal action against Setaria faberi” value (28 DAT, g a.i./ha: r35 270, r36 90, r37 30, r38 15, r39 5, r40 1.67) was 0% and the “Herbicidal action against Setaria viridis” value (28 DAT, g a.i./ha: r51 270, r52 15, r53 5, r54 1.67) was 10%. For the same compound, the “Herbicidal action against Alopecurus myosuroides (sensitive biotype)” value (28 DAT, g a.i./ha: r149 15, r150 5, r151 270, r152 90, r153 30) was 0%, the “Herbicidal action against Papaver rhoeas” value (28 DAT, g a.i./ha: r231 15, r232 5, r233 270) was 30% and the “Herbicidal action against Veronica hederifolia” value (28 DAT, g a.i./ha: r294 5, r295 90) was 60%. For the same compound, the “Herbicidal action against Echinochloa crus-galli” value ((Z32) 28 DAT, g a.i./ha: r372 270, r373 90, r374 30, r375 5) was 10%, the “Herbicidal action against Centaurea cyanus” value ((Z90) 14 DAT, g a.i./ha: r533 16, r534 4, r535 1, r536 90, r537 30) was 50% and the “Herbicidal action against Lamium purpureum L.” value ((Z90) 28 DAT, g a.i./ha: r586 16, r587 30) was 10%. For the same compound, the “Herbicidal action against Lolium rigidum” value ((Z90) 28 DAT, g a.i./ha: r594 16, r595 30) was 0%, the “Herbicidal action against Matricaria inodora” value ((Z90) 28 DAT, g a.i./ha: r602 4, r603 90) was 10% and the “Herbicidal action against Viola tricolor” value ((Z90) 28 DAT, g a.i./ha: r624 4, r625 270) was 40%. The “Herbicidal action against Alopecurus myosuroides” value ((Z119) 14 DAT, g a.i./ha: r632 16, r633 4, r634 30, r635 270) was 20%, the “Herbicidal action against Lolium rigidum” value ((Z119) 14 DAT, g a.i./ha: r682 16, r683 30) was 10% and the “Herbicidal action against Phalaris minor” value ((Z119) 14 DAT, g a.i./ha: r709 4, r710 270) was 20%. The “Herbicidal action against Poa annua L.” value ((Z119) 14 DAT, g a.i./ha: r729 4, r730 270) was 20%, the “Herbicidal action against Centaurea cyanus” value ((Z119) 28 DAT, g a.i./ha: r654 16, r655 30) was 10% and the “Herbicidal action against Galium aparine” value ((Z119) 28 DAT, g a.i./ha: r662 1, r663 270) was 20%. For the same compound, the “Herbicidal action against Lolium rigidum” value ((Z119) 28 DAT, g a.i./ha: r690 16, r691 30) was 0%, the “Herbicidal action against Abutilon theophrasti” value (Z61 28 DAT, g a.i./ha: r459 30, r460 15) was 10% and the “Herbicidal action against Brachiaria platyphylla” value (Z61 28 DAT, g a.i./ha: r479 30, r480 1.7) was 10%. The “Herbicidal action against Eleusine indica” value (Z61 28 DAT, g a.i./ha: r487 270, r488 5) was 20%.
With `CP(=O)(O)CCC(N)C(=O)O` (centres unmarked) [(B7.4) Glufosinate] the “Herbicidal action 28 DAT [%] against Eleusine indica” value (post-emergence, single active compound (A2 series), g a.i./ha: r337 150, r339 5) was 50%, the “Herbicidal action 28 DAT [%] against Kochia scoparia” value (post-emergence, single active compound (A2 series), g a.i./ha: r347 50, r349 5) was 10% and the “Herbicidal action 28 DAT [%] against Polygonum convulvulus” value (post-emergence, single active compound (A2 series), g a.i./ha: r357 50, r359 5) was 30%. The “Herbicidal action 28 DAT [%] against Kochia scoparia” value (post-emergence, single active compound (A3 series), g a.i./ha: r384 50, r386 45, r387 15, r388 5) was 10%, the “Herbicidal action in [%] 14 DAT against Galium aparine” value (post-emergence, single active compound (A4 series), g a.i./ha: r479 16, r480 4, r481 1, r482 150) was 30% and the “Herbicidal action in [%] 28 DAT against Galium aparine” value (post-emergence, single active compound (A4 series), g a.i./ha: r491 16, r492 50) was 30%. The “Herbicidal action in [%] 14 DAT against Lamium purpureum L.” value (post-emergence, single active compound (A4 series), g a.i./ha: r501 4, r502 1, r503 450) was 80%, the “Herbicidal action in [%] 28 DAT against Lamium purpureum L.” value (post-emergence, single active compound (A4 series), g a.i./ha: r512 4, r513 1, r514 450) was 60% and the “Herbicidal action in [%] 28 DAT against Lolium rigidum (resistant bio type)” value (post-emergence, single active compound (A4 series), g a.i./ha: r523 1, r524 450) was 20%. The “Herbicidal action in [%] 14 DAT against Poa annua L.” value (post-emergence, single active compound (A4 series), g a.i./ha: r533 16, r534 450) was 40%, the “Herbicidal action in [%] 28 DAT against Bromus sterilis” value (post-emergence, single active compound (A5 series), g a.i./ha: r617 4, r618 450) was 10% and the “Herbicidal action in [%] 14 DAT against Centaurea cyanus” value (post-emergence, single active compound (A5 series), g a.i./ha: r627 16, r628 1, r629 450, r630 150) was 70%. The “Herbicidal action in [%] 14 DAT against Galium aparine” value (post-emergence, single active compound (A5 series), g a.i./ha: r649 1, r650 150) was 30%, the “Herbicidal action in [%] 14 DAT against Lamium purpureum L.” value (post-emergence, single active compound (A5 series), g a.i./ha: r659 1, r660 450) was 80% and the “Herbicidal action in [%] 28 DAT against Lamium purpureum L.” value (post-emergence, single active compound (A5 series), g a.i./ha: r669 1, r670 450) was 60%. For the same compound, the “Herbicidal action 28 DAT [%] against Setaria faberi” value (post-emergence, single active compound, g a.i./ha: r40 50, r42 15, r43 5) was 10%, the “Herbicidal action 28 DAT [%] against Setaria viridis” value (post-emergence, single active compound, g a.i./ha: r51 50, r53 15, r54 5, r55 1.67) was 10% and the “Herbicidal action 28 DAT [%] against Abutilon theophrasti” value (post-emergence, single active compound, g a.i./ha: r77 450, r79 15, r80 5) was 90%. For the same compound, the “Herbicidal action 28 DAT [%] against Euphorbia heterophylla” value (post-emergence, single active compound, g a.i./ha: r88 150, r89 50, r90 45, r91 15, r92 5) was 15%, the “Herbicidal action 28 DAT [%] against Bromus sterilis” value (post-emergence, single active compound, g a.i./ha: r172 5, r173 1.67, r174 450) was 30% and the “Herbicidal action 28 DAT [%] against Galium aparine” value (post-emergence, single active compound, g a.i./ha: r183 5, r184 50) was 0%. For the same compound, the “Herbicidal action 28 DAT [%] against Lamium purpureum” value (post-emergence, single active compound, g a.i./ha: r204 45, r205 50) was 50%, the “Herbicidal action 28 DAT [%] against Lolium rigidum (sensitive biotype)” value (post-emergence, single active compound, g a.i./ha: r214 15, r215 150, r216 50) was 0% and the “Herbicidal action 28 DAT [%] against Lolium rigidum (resistant biotype)” value (post-emergence, single active compound, g a.i./ha: r224 15, r225 5, r226 150, r227 50) was 0%. For the same compound, the “Herbicidal action 28 DAT [%] against Veronica hederifolia” value (post-emergence, single active compound, g a.i./ha: r292 5, r293 150) was 70%, the “Herbicidal action 28 DAT [%] against Brachiaria platyphylla” value (post-emergence, single active compound, g a.i./ha: r314 50, r316 15, r317 5, r318 1.7) was 30% and the “Herbicidal action 28 DAT [%] against Pharbitis purpurea” value (post-emergence, single active compound, g a.i./ha: r396 50, r398 5) was 40%. The “Herbicidal action in [%] 28 DAT against Poa annua L.” value (post-emergence, single active compound, g a.i./ha: r721 16, r722 450) was 30%.
